Assay results from patent US10441663B2, “Methods for treating cancer” (Bicycle Therapeutics Limited, priority 2016, dated 2019).

System: LU-01-0486 PDX model
Format: in vivo, Mus Musculus
Conditions: Docetaxel group
Method: The objective of this study was to evaluate the in vivo anti-tumor efficacy of BT1718 in the treatment of MT1-MMP low-expressing LU-01-0486 PDX model in female Balb/C nude mice
Each mouse was inoculated subcutaneously at the right flank with LU-01-0486 of tumor fragment (30 mm^3) for tumor development. The treatments was started when the average tumor volume reaches 164 mm^3.
All the procedures related to animal handling, care and the treatment in the study were performed following the guidance of the Association for Assessment and Accreditation of Laboratory Animal Care (AAALAC). At the time of routine monitoring, the animals were daily checked for any effects of tumor growth and treatments on normal behavior such as mobility, food and water consumption (by looking only), body weight gain/loss (body weights were measured twice weekly), eye/hair matting and any other abnormal effect as stated in the protocol. Death and observed clinical signs were recorded on the basis of the numbers of animals within each subset.
The major endpoint was to see if the tumor growth could be delayed or mice could be cured. Tumor size was measured two times weekly in two dimensions using a caliper, and the volume was expressed in mm^3 using the formula: V=0.5 a×b^2 where a and b are the long and short diameters of the tumor, respectively. The tumor size was then used for calculations of T/C value. […]
TGI was calculated for each group using the formula: TGI (%)=[1−(Ti−T0)/(Vi−V0)]×100; Ti is the average tumor volume of a treatment group on a given day, T0 is the average tumor volume of the treatment group on the day of treatment start, Vi is the average tumor volume of the vehicle control group on the same day with Ti, and V0 is the average tumor volume of the vehicle group on the day of treatment start. […]
A one-way ANOVA was performed to compare tumor volume among groups, and when a significant F-statistics (a ratio of treatment variance to the error variance) was obtained, comparisons between groups were carried out with Games-Howell test. All data were analyzed using Prism. […]

**Q.** Which tumor growth does the source give for `CC(=O)O[C@@]12CO[C@@H]1C[C@H](O)[C@@]1(C)C(=O)[C@H](O)C3=C(C)[C@@H](OC(=O)[C@H](O)[C@@H](NC(=O)OC(C)(C)C)c4ccccc4)C[C@@](O)([C@@H](OC(=O)c4ccccc4)[C@H]21)C3(C)C` [Docetaxel, reference compound] here?
**A.** significant inhibition of tumor growth
